According to US11559538B2, “Substituted 1,2-oxaborolan-2-ols as PDE4 inhibitors” (Pfizer Inc., priority 2018, dated 2023):
Like-named read-outs stand apart in the source and are kept apart here.

Experiments:
Format in all cases: cell-based
[1] = test system: IFNγ; assay: Cytokine assay: IFNγ release from PHA-L stimulated human PBMCs
Procedure: (§1) Cytokine inhibitory activity is determined by measuring the effect of test agent on the release of the cytokines IL-4, IL-13 and IFNγ from human peripheral blood mononuclear cells (PBMCs) stimulated with the T-cell mitogen phytohemagglutinin-L (PHA-L). At the time of assay, human PBMCs (Astarte Biologics) are removed from cryopreservation, thawed quickly at 37° C., diluted in assay medium (RPMI-Gibco 1640 medium, 10% heat inactivated fetal bovine serum (HIFBS), 2 mM glutamine and 10 mM HEPES pH 7.4) and then centrifuged at 250×g for 5 minutes. The resulting cell pellet is re-suspended in assay medium to a concentration of approximately 5×10^6 cells/mL and 50 μL of this cell suspension (approximately 250,000 cells) is added to each well of a 384-well cell culture microtiter plate (Perkin Elmer). Varying concentrations of test compound are then diluted in assay medium and added to the assay plate wells in a volume of 25 μL. After −10 minutes at room temperature (21° C.) the cells are stimulated by the addition of 25 μL of PHA-L (14 μg/mL; Millipore) and the assay plate is placed in an incubator at 37° C. in a humidified environment in 5% carbon dioxide. The final assay conditions are approximately 250,000 human PBMCs per well in assay medium containing 3.5 μg/mL PHA-L and the indicated final concentration of test compound (approximately 10 μM to […] by 4-fold dilution). The final concentration of DMSO in the assay is approximately 0.25%. After 48 hours, the assay plate is removed from the incubator and centrifuged at 250×g for 5 minutes. A portion of the resulting cell supernatant is then used to determine the amount of IL-4, IL-13 and IFNγ in each well. Cytokine measurements are made using human IL-4, IL-13 or IFNγ HTRF assay kits (CisBio) following the manufacturer's assay protocol. The concentrations and resulting effect values for tested compounds are plotted and the concentration of compound required for 50% effect (IC50) is determined with a four-parameter logistic dose response equation (E-WorkBook, ID Business Solutions Ltd.) and shown in Table 17.

[2] = test system: IL-13; assay: Cytokine assay: IL-13 release from PHA-L stimulated human PBMCs; settings: read-out: IL13 IC50
Procedure: as §1

[3] = test system: IL-4; assay: Cytokine assay: IL-4 release from PHA-L stimulated human PBMCs; settings: read-out: IL4 IC50
Procedure: as §1

IC50 [1] | IC50 [2] | IC50 [3] | IC50 ([1]; Homo sapiens, PBMC) | IC50 ([2]; Homo sapiens, PBMC) | IC50 ([3]; Homo sapiens, PBMC) | Structure (SMILES)
– | – | – | 2.84 nM | 585 nM | 62.6 nM | CCCOc1cc(-c2cccc(C3COB(O)C3)n2)ccc1OC (stereo not drawn) [Example 127, 4-(6-(4-methoxy-3-propoxyphenyl)pyridin-2-yl)-1,2-oxaborolan-2-ol]
– | – | – | 4.73 nM | 439 nM | 9.42 nM | CCCOc1cc(-c2nc(C(C)O)cc(C3COB(O)C3)n2)ccc1OC (stereo not drawn) [Example 83, 4-(6-(1-hydroxyethyl)-2-(4-methoxy-3-propoxyphenyl)pyrimidin-4-yl)-1,2-oxaborolan-2-ol]
1.07 nM | 426 nM | 7.14 nM | – | – | – | CCCOc1c(OC)ccc(-c2cncc(C3COB(O)C3)c2)c1F (stereo not drawn) [Example 82, 4-(5-(2-fluoro-4-methoxy-3-propoxphenyl)pyridin-3-yl)-1,2-oxaborolan-2-ol]
– | – | – | 3.21 nM | 166 nM | 4.4 nM | CCCOc1cc(-c2cncc(C3COB(O)C3)c2)c(F)cc1OC (stereo not drawn) [Example 49, 4-(5-(2-fluoro-4-methoxy-5-propoxyphenyl)pyridin-3-yl)-1,2-oxaborolan-2-ol]
– | – | – | 0.33 nM | 2190 nM | 0.36 nM | CCCOc1cc(-c2nc(OCCO)cc(C3COB(O)C3)n2)ccc1OC (stereo not drawn) [Example 195, 4-(6-(2-hydroxyethoxy)-2-(4-methoxy-3-propoxyphenyl)pyrimidin-4-yl)-1,2-oxaborolan-2-ol]
– | – | – | 2.43 nM | 670 nM | 11.7 nM | CCCOc1cc(-c2cc(C3COB(O)C3)cnn2)ccc1OC (single isomer, unassigned) [Example 136, 4-(6-(4-methoxy-3-propoxyphenyl)pyridazin-4-yl)-1,2-oxaborolan-2-ol]
– | – | – | 0.76 nM | 487 nM | 0.83 nM | CCCOc1cc(-c2nc(COC)cc(C3COB(O)C3)n2)ccc1OC (single isomer, unassigned) [Example 103, 4-(2-(4-methoxy-3-propoxyphenyl)-6-(methoxymethyl)pyrimidin-4-yl)-1,2-oxaborolan-2-ol]
– | – | – | 2.52 nM | 1090 nM | 37.2 nM | CCCOc1cc(-c2cc(C3COB(O)C3)cnn2)ccc1OC (stereo not drawn) [Example 137]
– | – | – | 2.45 nM | 508 nM | 42 nM | CCCOc1c(OC)ccc(-c2cccc(C3COB(O)C3)c2)c1F (stereo not drawn) [Example 116, 4-(2′-fluoro-4′-methoxy-3′-propoxy-[1,1′-biphenyl]-3-yl)-1,2-oxaborolan-2-ol]
– | – | – | 12.2 nM | 1580 nM | 107 nM | COc1ccc(-c2cccc(C3COB(O)C3)n2)cc1OC (stereo not drawn) [Example 197, 4-(6-(3,4-dimethoxyphenyl)pyridin-2-yl)-1,2-oxaborolan-2-ol]
– | – | – | 1.52 nM | 234 nM | 1.04 nM | CCCOc1cc(-c2cncc(C3COB(O)C3)c2)ccc1OC(F)F (stereo not drawn) [Example 50, 4-(5-(4-(difluoromethoxy)-3-propoxyphenyl)pyridin-3-yl)-1,2-oxaborolan-2-ol]
– | – | – | 4.44 nM | 325 nM | 8.04 nM | CCCOc1cc(-c2cc(CO)cc(C3COB(O)C3)n2)ccc1OC (stereo not drawn) [Example 64, 4-(4-(hydroxymethyl)-6-(4-methoxy-3-propoxphenyl)pyridin-2-yl)-1,2-oxaborolan-2-ol]
18.8 nM | 1910 nM | 42 nM | – | – | – | CCOc1cc(-c2cncc(C3COB(O)C3)c2)c(C)cc1OC (single isomer, unassigned) [Example 71, 4-(5-(5-ethoxy-4-methoxy-2-methylphenyl)pyridin-3-yl)-1,2-oxaborolan-2-ol]
– | – | – | 3.01 nM | 1240 nM | 2.07 nM | CCCOc1cc(-c2nc(COC)cc(C3COB(O)C3)n2)ccc1OC (stereo not drawn) [Example 102, 4-(2-(4-methoxy-3-propoxyphenyl)-6-(methoxymethyl)pyrimidin-4-yl)-1,2-oxaborolan-2-ol]

More lines, now with the values behind:

Structure (SMILES) | IC50 [1] | IC50 [2] | IC50 [3] | IC50 ([1]; Homo sapiens, PBMC) | IC50 ([2]; Homo sapiens, PBMC) | IC50 ([3]; Homo sapiens, PBMC)
CCOc1cc(-c2cncc(C3COB(O)C3)c2)c(C)cc1OC (single isomer, unassigned) [Example 70, 4-(5-(5-ethoxy-4-methoxy-2-methylphenyl)pyridin-3-yl)-1,2-oxaborolan-2-ol] | 2.85 nM | 890 nM | 4.31 nM | – | – | –
CCOc1ccc(-c2cncc(C3COB(O)C3)c2)cc1OCC (single isomer, unassigned) [Example 97, 4-(5-(3,4-diethoxyphenyl)pyridin-3-yl)-1,2-oxaborolan-2-ol] | – | 465 nM | 34 nM | 2.81 nM | – | –
COc1cnc(-c2cccc(C3COB(O)C3)c2)nc1OC (stereo not drawn) [Example 122, 4-(3-(4,5-dimethoxypyrimidin-2-yl)phenyl)-1,2-oxaborolan-2-ol] | – | – | – | 7.49 nM | 567 nM | 362 nM
CSc1ccc(-c2cncc(C3COB(O)C3)c2)cc1OC1CCCC1 (single isomer, unassigned) [Example 100, 4-(5-(3-(cyclopentyloxy)-4-(methylthio)phenyl)pyridin-3-yl)-1,2-oxaborolan-2-ol] | 4.32 nM | 472 nM | – | – | – | 32.7 nM
COc1ccc(-c2cccc(C3COB(O)C3)c2)c(C#N)c1OC (stereo not drawn) [Example 177, 3′-(2-hydroxy-1,2-oxaborolan-4-yl)-3,4-dimethoxy-[1,1′-biphenyl]-2-carbonitrile] | – | – | – | 8.49 nM | 1220 nM | 155 nM
CCCOc1cc(-c2cncc(C3COB(O)C3)c2)ccc1SC (single isomer, unassigned) [Example 114, 4-(5-(4-(methylthio)-3-propoxyphenyl)pyridin-3-yl)-1,2-oxaborolan-2-ol] | – | – | – | 21.5 nM | 2910 nM | 32.7 nM
COc1ccc(-c2cccc(C3COB(O)C3)c2)cc1OCC(C)C (stereo not drawn) [Example 183, 4-(3′-isobutoxy-4′-methoxy-[1,1′-biphenyl]-3-yl)-1,2-oxaborolan-2-ol] | – | – | – | 6.4 nM | 1370 nM | 102 nM
CCOc1cc(-c2cncc(C3COB(O)C3)c2)cc(Cl)c1OC (stereo not drawn) [Example 45, 4-(5-(3-chloro-5-ethoxy-4-methoxyphenyl)pyridin-3-yl)-1,2-oxaborolan-2-ol] | – | – | – | 3.88 nM | 450 nM | 12.4 nM
COc1ccc(-c2cccc(C3COB(O)C3)n2)cc1OC1CCCC1 (stereo not drawn) [Example 65, 4-(6-(3-(cyclopentyloxy)-4-methoxyphenyl)pyridin-2-yl)-1,2-oxaborolan-2-ol] | – | – | – | 5.34 nM | 814 nM | 186 nM
COc1ccc(-c2nc(C3COB(O)C3)ccc2F)cc1OC1CCCC1 (stereo not drawn) [Example 131, 4-(6-(3-(cyclopentyloxy)-4-methoxyphenyl)-5-fluoropyridin-2-yl)-1,2-oxaborolan-2-ol] | – | – | – | 5.7 nM | 591 nM | 11.6 nM
CCCOc1cc(-c2cncc(C3COB(O)C3)c2)ccc1SC (stereo not drawn) [Example 113, 4-(5-(4-(methylthio)-3-propoxyphenyl)pyridin-3-yl)-1,2-oxaborolan-2-ol] | 3.81 nM | 497 nM | 36.1 nM | – | – | –
CSc1ccc(-c2cncc(C3COB(O)C3)c2)cc1OC1CCCC1 (single isomer, unassigned) [Example 101, 4-(5-(3-(cyclopentyloxy)-4-(methylthio)phenyl)pyridin-3-yl)-1,2-oxaborolan-2-ol] | 13.3 nM | 2650 nM | 26 nM | – | – | –
CCOc1cc(-c2cncc(C3COB(O)C3)c2)ccc1SC (stereo not drawn) [Example 144, 4-(5-(3-ethoxy-4-(methylthio)phenyl)pyridin-3-yl)-1,2-oxaborolan-2-ol] | – | – | – | 5.02 nM | 706 nM | 83.9 nM
COc1ccc(-c2cncc(C3COB(O)C3)c2)c(F)c1OC (stereo not drawn) [Example 108, 4-(5-(2-fluoro-3,4-dimethoxyphenyl)pyridin-3-yl)-1,2-oxaborolan-2-ol] | 4.35 nM | 493 nM | 22.1 nM | – | – | –
